Experimental data published in ChEMBL document CHEMBL1129781, “Inhibition of protein phosphatase 2A by cantharidin analogues” (Bioorg Med Chem Lett, 1996).

Assays:
[1] = Compound was tested for inhibition of specific [3H]cantharidin binding to CBP: Range= 200->100000; set-up: species or system Mus musculus
[2] = species: Mus musculus; test: Compound was tested for inhibition of cantharidin-binding protein(CBP) phosphatase isolated from mouse liver.; set-up: concentration or dose not given beside the values; details: concentration not given here
[3] = species: Mus musculus; test: Inhibition of Protein Phosphatase 2A (PP2A) partially purified from mouse brain; format: tissue-based; set-up: concentration or dose not given beside the values; details: concentration not given here
[4] = Compound was tested for inhibition of specific [3H]cantharidin binding to CBP.; set-up: species or system Mus musculus
[5] = target: Serine/threonine-protein phosphatase 2A 65 kDa regulatory subunit A alpha isoform (Mus musculus, UniProt Q76MZ3); test: Compound was tested for inhibitory concentration of Protein Phosphatase 2A (PP2A).
Sequence of Serine/threonine-protein phosphatase 2A 65 kDa regulatory subunit A alpha isoform (Q76MZ3 whole entry, canonical isoform): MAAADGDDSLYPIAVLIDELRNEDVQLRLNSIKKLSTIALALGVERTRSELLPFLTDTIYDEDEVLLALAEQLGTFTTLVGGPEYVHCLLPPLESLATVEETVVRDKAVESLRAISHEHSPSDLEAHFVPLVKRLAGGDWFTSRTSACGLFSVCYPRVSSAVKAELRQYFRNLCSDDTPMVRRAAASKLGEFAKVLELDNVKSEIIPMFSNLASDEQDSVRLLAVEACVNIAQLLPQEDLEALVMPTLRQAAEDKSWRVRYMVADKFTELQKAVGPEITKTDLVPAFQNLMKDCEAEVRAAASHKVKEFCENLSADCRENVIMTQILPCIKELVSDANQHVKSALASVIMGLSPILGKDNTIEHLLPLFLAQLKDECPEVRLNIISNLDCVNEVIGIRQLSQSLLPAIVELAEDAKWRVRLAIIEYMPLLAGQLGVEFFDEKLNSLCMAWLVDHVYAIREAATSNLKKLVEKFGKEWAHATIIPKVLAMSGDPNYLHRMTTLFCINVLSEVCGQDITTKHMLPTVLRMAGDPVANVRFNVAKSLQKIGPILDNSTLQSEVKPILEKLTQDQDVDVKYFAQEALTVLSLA

[6] = species: Mus musculus; test: Compound was tested for inhibition of cantharidin-binding protein(CBP) phosphatase isolated from mouse liver: Range=92-95; details: concentration not given here
[7] = Compound was tested for inhibition of specific [3H]cantharidin binding to CBP: Range=4-8; set-up: species or system Mus musculus
[8] = species: Mus musculus; test: Compound was tested for inhibition of cantharidin-binding protein(CBP) phosphatase isolated from mouse liver: Range= 22-51; details: concentration not given here
[9] = Compound was tested for inhibition of specific [3H]cantharidin binding to CBP: Range= 10-50; set-up: species or system Mus musculus

For `CCOC(=O)C1CC2OC1C(C(=O)O)C2C(=O)O` (stereo unspecified), the IC50 [1] was > 100 µM and the inhibition [2] was 0%.
With `COC(=O)C1CC2C=CC1C2` (stereo unspecified) the inhibition [3] was 30.8%.
For `O=C1OC(=O)C2CC=CCC12` (stereo unspecified), the inhibition [3] was 24%.
Work on `O=C(O)C1CC=CCC1C(=O)O` (stereo unspecified) yielded an inhibition [3] of 12.2%.
`O=C(O)C1CC2C=CC1C2` (stereo unspecified) gave an inhibition [3] of 3.8%.
With `CC1(C(=O)O)C2CCC(O2)C1(C)C(=O)O` (stereo unspecified) [CANTHARIDIC_ACID] the IC50 [4] was 4 µM and the inhibition [2] was 95%.
Molecule `O=C(O)C1C2C=CC(C2)C1C(=O)O` (stereo unspecified) has an inhibition [3] of 17.2%.
For `O=C1OC(=O)[C@H]2[C@@H]1[C@H]1C=C[C@H]2C1` (stereo in doubt; 6), the inhibition [3] was 48.8%.
`O=C1OC(=O)C2C3CCC(C3)C12` (stereo in doubt; 11) gave an inhibition [3] of 13.3%.
For `CC12CCC(C)(O1)C(C(=O)O)C2C(=O)O` (stereo unspecified), the IC50 [1] was > 100 µM and the inhibition [2] was 0%.
Work on `O=C1OC(=O)C2C3C=CC(O3)C12` (stereo unspecified) yielded an inhibition [3] of 95.2% and an IC50 [5] of 40 µM.
Molecule `O=C1OC(=O)C2C3CCC(C3)C12` (stereo in doubt; 7) has an inhibition [3] of 38.7%.
`O=C1OC(=O)C2C3CCC(O3)C12` (stereo unspecified) [DEMETHYL-CANTHARIDIN] showed an inhibition [3] of 88.3% and an IC50 [5] of 70 µM.
In the case of `CC12C(=O)OC(=O)C1(C)C1CCC2O1` (stereo unspecified), the inhibition [3] is reported as 95%, the inhibition [6] is reported as 92% and the IC50 [5] is reported as 8 µM. It also gave an IC50 [7] of 0.004 µM.
`O=C(O)[C@@H]1[C@H](C(=O)O)[C@H]2CC[C@@H]1O2` [ENDOTHALL] showed an inhibition [8] of 51% and an IC50 [9] of 0.05 µM.
Work on `O=C1OC(=O)C23CCCC12C1CCC3O1` (stereo unspecified) yielded an IC50 [4] of 4 µM and an inhibition [2] of 95%.
Work on `CC1(C(=O)O)C2CCC(O2)C1C(=O)O` (stereo unspecified) yielded an inhibition [8] of 51% and an IC50 [9] of 0.05 µM.
`O=C1OC(=O)C2CCCCC12` (stereo unspecified) gave an inhibition [3] of 9.2%.
In the case of `O=C(O)C1C2C=CC(O2)C1C(=O)O` (stereo unspecified), the inhibition [3] is reported as 80.3% and the IC50 [5] is reported as 300 µM.
In the case of `O=C(O)C1CC2OC1C(C(=O)O)C2C(=O)O` (stereo unspecified), the inhibition [8] is reported as 51% and the IC50 [9] is reported as 0.05 µM.
For `N#CCC1CC2OC1C(C(=O)O)C2C(=O)O` (stereo unspecified), the IC50 [1] was > 100 µM and the inhibition [2] was 0%.
Molecule `O=C1OC(=O)[C@H]2[C@@H]1[C@H]1C=C[C@H]2C1` (stereo in doubt; 5) has an inhibition [3] of 48.1%.
